# Biological target: T1, NK1 receptor (Homo sapiens, UniProt P25103)
# T1 construct: endogenous in cells; host or cells: IM9 cells (intact)
# Experiment: [3H] SP binding assay in IM9 Cell Line (Substance P antagonism)
# Details: intact IM9 cells, 60 min, room temperature, compound at 1 μM
# Protocol: Assessment of biological activity (NK1 antagonism) of compounds of this invention was performed by means of the following binding and functional assays:
# [3H] SP binding assay in IM9 Cell Line
# Binding assay was performed with intact cells as described by Payan et al. (J. Immunology 133, 3260 (1984)). Cells were washed with buffer A, (pH 7.5), containing (in mM) Tris-HCl 50, and NaCl 150, plus 0.02% BSA, and then resuspended in assay buffer (buffer A supplemented with protease inhibitors) at a concentration of 1×10^7 cells/ml. Cells were incubated with [3H]SP in a final volume of 0.5 ml for 60 min. at room temperature. Nonspecific binding was determined in the presence of […] nonradioactive SP. The assay mixture was set up in microfuge tubes that had been presoaked in a 0.5% BSA solution for at least 3 hours. Bound and free [^3 H]SP were separated by pelleting the cells in a microfuge (6 min.; 12000 g); the supernatant was then removed by aspiration. For competition binding experiments, IM9 cells were incubated in triplicate with […] [^3 H]SP (the approximate Kd value, as determined in saturation binding experiments); competing ligands were typically added in six concentrations (1:10 dilutions in assay buffer) to give full competition curves.
# T1 sequence (P25103 whole entry): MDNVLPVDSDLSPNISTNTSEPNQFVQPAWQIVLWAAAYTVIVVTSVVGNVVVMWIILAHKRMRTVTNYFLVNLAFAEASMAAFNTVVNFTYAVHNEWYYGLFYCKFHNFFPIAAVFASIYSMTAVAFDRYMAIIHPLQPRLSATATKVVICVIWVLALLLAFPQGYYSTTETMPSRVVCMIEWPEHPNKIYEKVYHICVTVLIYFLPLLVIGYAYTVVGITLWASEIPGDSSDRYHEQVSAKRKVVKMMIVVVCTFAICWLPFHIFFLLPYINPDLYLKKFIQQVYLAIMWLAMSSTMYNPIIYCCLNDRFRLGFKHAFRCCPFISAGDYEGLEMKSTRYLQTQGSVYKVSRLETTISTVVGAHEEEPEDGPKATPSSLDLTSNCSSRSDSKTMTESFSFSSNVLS
inhibition at 1 µM [%],% of binding inhibition at 1 μM (1 µM) [%],SMILES
100,–,"CN(Cc1ccccc1)C(=O)[C@H](Cc1ccc2ccccc2c1)NC(=O)C1CCCCC1NC(=O)c1c[nH]c2ccccc12 (stereo partly drawn) [Example 3 fast, N^α [N-(1H-indol-3-yl-carbonyl)-(R,S)cis-2-aminocyclohexyl-carbonyl]-L-3(2-naphthyl)alanyl-N-methyl-N-benzylamide and N^α [N-(1H-indol-3-yl-carbonyl)-(S,R)cis-2-aminocyclohexyl-carbonyl]-L-3(2-naphthyl)alanyl-N-methyl-N-benzylamide]"
98,–,"CN(Cc1ccccc1)C(=O)[C@@H](Cc1ccc2ccccc2c1)NC(=O)C1CCCCC1NC(=O)c1ccccc1 (stereo partly drawn) [Example 17 fast, N^α [N-(benzoyl)-(R,S)cis-2-aminocyclohexyl-carbonyl]-D-3-(2-naphthyl)alanyl-N-methyl-N-benzylamide and N^α [N-(benzoyl)-(S,R)cis-2-aminocyclohexyl-carbonyl]-D-3-(2-naphthyl)alanyl-N-methyl-N-benzylamide]"

# Further lines, the molecule ahead of its results:
SMILES,inhibition at 1 µM [%],% of binding inhibition at 1 μM (1 µM) [%]
"CN(Cc1ccccc1)C(=O)[C@H](Cc1ccccc1)NC(=O)C1CCCCC1NC(=O)c1c[nH]c2ccccc12 (stereo partly drawn) [Example 1 fast, N-methyl-N-benzylamide of N^α -{[N(indol-3-yl-carbonyl)(R,R)-trans-2-amino]cyclohexanoyl}-L-phenylalanine and N-methyl-N-benzylamide of N^α -{[N(indol-3-yl-carbonyl)(S,S)-trans-2-amino]cyclohexanoyl}-L-phenylalamine, reference compound]",96,–
"CN(Cc1ccccc1)C(=O)[C@H](Cc1ccccc1)NC(=O)C1CCCCC1NC(=O)c1c[nH]c2ccccc12 (stereo partly drawn) [Example 2 fast, N-methyl-N-benzylamide of N^α -{[N(indol-3-yl-carbonyl)(R,S)-cis-2-amino]cyclohexanoyl}-L-phenylalanine and N-methyl-N-benzylamide of N^α -{[N(indol-3-yl-carbonyl)(S,R)-cis-2-amino]cyclohexanoyl}-L-phenylalanine]",–,100
"CN(Cc1ccccc1)C(=O)[C@H](Cc1ccc2ccccc2c1)NC(=O)C1C2CCC(C2)C1NC(=O)c1c[nH]c2ccccc12 (stereo partly drawn) [Example 10 fast, N^α [N-(1H-indol-3-yl-carbonyl)-3S-endoaminobicyclo(2,2,1)heptyl-2R endocarbonyl]-L-3-(2-naphthyl)alanyl-N-methyl-N-benzylamide and N^α [N-(1H-indol-3-yl-carbonyl)-3R-endoaminobicyclo(2,2,1)heptyl-2S-endocarbonyl]-L-3-(2-naphthyl)alanyl-N-methyl-N-benzylamide]",95,–
